Measured values published in US20210145827A1, “ANTIBIOTIC GEL FORMULATION AND METHODS OF PREPARING THE ANTIBIOTIC GEL FORMULATION” (Indiana University Research and Technology Corporation, priority 2015, published 2021).

Legend:
[1] = tested on: three-week old E. faecalis biofilm; assay: biofilm disruption assay on infected dentin samples (Example 2); assay type: cell-based, E. faecalis (ATCC 29212); conditions: immersion 5 minutes
Experimental: Unidentified intact human teeth were collected, stored in 0.1% thymol solution at 4° C., and used within 6 months after obtaining local Institutional Review Board approval (IRB #1409251353). A standardized radicular dentin sample (4×4×1 mm^3) was obtained from each root using a slow diamond saw (IsoMet, Buehler, Lake Bluff, Ill.) under continuous distilled water irrigation. The pulpal side of each specimen was wet-finished with silicon carbide abrasive papers (500-2400 grit, Struers, Cleveland, Ohio). The polished samples were then sonicated in deionized water for 3 minutes, washed with sterile water, wrapped individually with moist cotton pellets, placed in Whirl-pak bags (Sigma-Aldrich, St Louis, Mo.), gas sterilized with ethylene oxide, and stored at 4° C. until used. E. faecalis (ATCC 29212) was grown initially on anaerobic blood agar plates (CDC, BioMerieux, Durham, N.C.). Colonies of E. faecalis were then suspended in brain-heart infusion (BHI) broth supplemented with 5 grams yeast extract/L (BHI-YE) and incubated for 24 hours at 37° C. with 5% CO2. Dentin samples were placed individually in separate wells of a 96-sterile well plate (Fisherbrand, Fischer Scientific) with the pulpal side facing upwards. […] The CFUs/mL were quantified using an automated colony counter (Synbiosis, Inc., Frederick, Md.). Summary statistics were calculated for the log-transformed data from each group. […]

[2] = tested on: stem cells from apical papillae and dental pulp stem cells; conditions: 2% CHX; in vitro studies; cited from earlier work

Structure (SMILES) | antibiofilm effect (log CFU/mL) ([1]; 1.5% NaOCl) | effect on survival and attachment of stem cells from apical and dental pulp [2] | antibiofilm effect (log CFU/mL) ([1]; 2% CHX, versus control groups, not complete eradication)
OCl [NaOCl, sodium hypochlorite] | complete eradication |  | 
N=C(NCCCCCCNC(=N)NC(=N)Nc1ccc(Cl)cc1)NC(=N)Nc1ccc(Cl)cc1 [CHX] |  | highly unfavorable effects | significant reduction in E. faecalis biofilm
